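A five-concentration, 48-hour dose response in 96-well plates underlies each endpoint, interpolated linearly between surrounding concentrations. At the GI50, growth is halved.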 Activity calls are given as the source filed them. No stated cut-off is given here; in the data, active = GI50 up to about 1.1 µM and inactive = higher.
Assays:
Assay in all cases: NCI-60 cell line screen, 48 h
M14 = tested on: M14
SF-268 = tested on: SF-268
CAKI-1 = tested on: CAKI-1
OVCAR-8 = tested on: OVCAR-8
SK-MEL-5 = tested on: SK-MEL-5
SNB-75 = tested on: SNB-75
HOP-18 = tested on: HOP-18
RXF 631 = tested on: RXF 631
RXF 393 = tested on: RXF 393
SR = tested on: SR
XF498 = tested on: XF498
Malme-3M = tested on: Malme-3M
SF-539 = tested on: SF-539
CCRF-CEM = tested on: CCRF-CEM
OVCAR-5 = tested on: OVCAR-5
SNB-78 = tested on: SNB-78
SK-MEL-28 = tested on: SK-MEL-28
UO-31 = tested on: UO-31
LOX IMVI = tested on: LOX IMVI
M19-MEL = tested on: M19-MEL
TK-10 = tested on: TK-10
SNB-19 = tested on: SNB-19
EKVX = tested on: EKVX
SK-MEL-2 = tested on: SK-MEL-2
SW-620 = tested on: SW-620
COLO 205 = tested on: COLO 205
NCI-H226 = tested on: NCI-H226
NCI-H460 = tested on: NCI-H460
A498 = tested on: A498
U-251 = tested on: U-251
DLD-1 = tested on: DLD-1
NCI-H23 = tested on: NCI-H23
A549 = tested on: A549
UACC-257 = tested on: UACC-257
OVCAR-4 = tested on: OVCAR-4
HCT-116 = tested on: HCT-116
KM12 = tested on: KM12
HL-60 = tested on: HL-60
NCI-H522 = tested on: NCI-H522
SN12C = tested on: SN12C
DMS-114 = tested on: DMS-114
SK-OV-3 = tested on: SK-OV-3
RPMI-8226 = tested on: RPMI-8226
K562 = tested on: K562
MOLT-4 = tested on: MOLT-4
HT-29 = tested on: HT-29
HCT-15 = tested on: HCT-15
KM-20L2 = tested on: KM-20L2
ACHN = tested on: ACHN
HOP-62 = tested on: HOP-62
UACC-62 = tested on: UACC-62
LXFL 529 = tested on: LXFL 529
IGROV-1 = tested on: IGROV-1
786-0 = tested on: 786-0
HCC 2998 = tested on: HCC 2998
SF-295 = tested on: SF-295
OVCAR-3 = tested on: OVCAR-3
DMS-273 = tested on: DMS-273

With `CC(=O)Oc1ccc(O)c2c1CCCC2` the GI50 (M14) was 24.2 µM (inactive), the GI50 (SF-268) was 58.3 µM (inactive) and the GI50 (CAKI-1) was 31.1 µM (inactive). The GI50 (OVCAR-8) was 18 µM (inactive), the GI50 (SK-MEL-5) was > 45.7 µM (inactive) and the GI50 (SNB-75) was > 100 µM (inactive). The GI50 (HOP-18) was 21.6 µM (inactive), the GI50 (RXF 631) was > 100 µM (inactive) and the GI50 (RXF 393) was > 42.8 µM (inactive). The GI50 (SR) was 2.82 µM (inactive), the GI50 (XF498) was 16.4 µM (inactive) and the GI50 (Malme-3M) was > 40.5 µM (inactive). The GI50 (SF-539) was > 100 µM (inactive), the GI50 (CCRF-CEM) was 10.2 µM (inactive) and the GI50 (OVCAR-5) was > 100 µM (inactive). For the same compound, the GI50 (SNB-78) was 19.8 µM (inactive), the GI50 (SK-MEL-28) was 66.4 µM (inactive) and the GI50 (UO-31) was > 45.5 µM (inactive). For the same compound, the GI50 (LOX IMVI) was 19.4 µM (inactive), the GI50 (M19-MEL) was 13.4 µM (inactive) and the GI50 (TK-10) was 21.4 µM (inactive). For the same compound, the GI50 (SNB-19) was > 100 µM (inactive), the GI50 (EKVX) was 64.9 µM (inactive) and the GI50 (SK-MEL-2) was > 100 µM (inactive). The GI50 (SW-620) was 20.8 µM (inactive), the GI50 (COLO 205) was 22.4 µM (inactive) and the GI50 (NCI-H226) was > 100 µM (inactive). The GI50 (NCI-H460) was > 31.6 µM (inactive), the GI50 (A498) was > 31.6 µM (inactive) and the GI50 (U-251) was > 78.3 µM (inactive). For the same compound, the GI50 (DLD-1) was 20.7 µM (inactive), the GI50 (NCI-H23) was > 52.8 µM (inactive) and the GI50 (A549) was > 100 µM (inactive). For the same compound, the GI50 (UACC-257) was 39.9 µM (inactive), the GI50 (OVCAR-4) was 19 µM (inactive) and the GI50 (HCT-116) was 18.4 µM (inactive). The GI50 (KM12) was > 100 µM (inactive), the GI50 (HL-60) was 3.66 µM (inactive) and the GI50 (NCI-H522) was 13.6 µM (inactive). For the same compound, the GI50 (SN12C) was > 45.4 µM (inactive), the GI50 (DMS-114) was 30.2 µM (inactive) and the GI50 (SK-OV-3) was 46.7 µM (inactive). The GI50 (RPMI-8226) was 23.3 µM (inactive), the GI50 (K562) was 22.2 µM (inactive) and the GI50 (MOLT-4) was 12.1 µM (inactive). The GI50 (HT-29) was 35.7 µM (inactive), the GI50 (HCT-15) was 13.4 µM and the GI50 (KM-20L2) was > 100 µM (inactive). The GI50 (ACHN) was 15.2 µM (inactive), the GI50 (HOP-62) was > 100 µM (inactive) and the GI50 (UACC-62) was > 75.5 µM (inactive). For the same compound, the GI50 (LXFL 529) was 16.3 µM (inactive), the GI50 (IGROV-1) was > 100 µM (inactive) and the GI50 (786-0) was > 100 µM (inactive). The GI50 (HCC 2998) was > 100 µM (inactive), the GI50 (SF-295) was > 100 µM (inactive) and the GI50 (OVCAR-3) was 12.5 µM (inactive). For the same compound, the GI50 (DMS-273) was > 46.1 µM (inactive).
`[O-][S+]1c2ccccc2N=C(c2cccc3ccccc23)CC1c1cccc2ccccc12` (stereo not given) was tested, and the GI50 (M14) was 14.5 µM (inactive), the GI50 (SF-268) was 22.2 µM (inactive) and the GI50 (CAKI-1) was 24.8 µM (inactive). The GI50 (OVCAR-8) was 18.9 µM (inactive), the GI50 (SK-MEL-5) was 5.52 µM (inactive) and the GI50 (SNB-75) was 23.1 µM (inactive). The GI50 (HOP-18) was 12.2 µM (inactive), the GI50 (RXF 631) was 36.4 µM (inactive) and the GI50 (RXF 393) was 22.6 µM (inactive). For the same compound, the GI50 (SR) was 24.1 µM (inactive), the GI50 (XF498) was 20.6 µM (inactive) and the GI50 (Malme-3M) was 22.9 µM (inactive). The GI50 (SF-539) was 19.5 µM (inactive), the GI50 (CCRF-CEM) was 20.5 µM (inactive) and the GI50 (OVCAR-5) was 31.6 µM (inactive). The GI50 (SNB-78) was 39 µM (inactive), the GI50 (SK-MEL-28) was 0.91 µM (active) and the GI50 (UO-31) was 23.9 µM (inactive). The GI50 (LOX IMVI) was 13.6 µM (inactive), the GI50 (M19-MEL) was 2.01 µM (inactive) and the GI50 (TK-10) was 31.2 µM (inactive). For the same compound, the GI50 (SNB-19) was 21 µM (inactive), the GI50 (EKVX) was 21.4 µM (inactive) and the GI50 (SK-MEL-2) was 17.5 µM (inactive). For the same compound, the GI50 (SW-620) was 17.7 µM (inactive), the GI50 (COLO 205) was 20.9 µM (inactive) and the GI50 (NCI-H226) was 21.1 µM (inactive). For the same compound, the GI50 (NCI-H460) was 15 µM (inactive), the GI50 (A498) was 21.7 µM (inactive) and the GI50 (U-251) was 18.6 µM (inactive). For the same compound, the GI50 (DLD-1) was 18.4 µM (inactive), the GI50 (NCI-H23) was 20.3 µM (inactive) and the GI50 (A549) was 18.8 µM (inactive). The GI50 (UACC-257) was 17.1 µM (inactive), the GI50 (OVCAR-4) was 12.8 µM (inactive) and the GI50 (HCT-116) was 17.3 µM (inactive). For the same compound, the GI50 (KM12) was 15.2 µM (inactive), the GI50 (HL-60) was 10.8 µM (inactive) and the GI50 (NCI-H522) was 15 µM (inactive). The GI50 (SN12C) was 16.6 µM (inactive), the GI50 (DMS-114) was 16.5 µM (inactive) and the GI50 (SK-OV-3) was 32.9 µM (inactive). For the same compound, the GI50 (RPMI-8226) was 19.8 µM (inactive), the GI50 (K562) was 30.8 µM (inactive) and the GI50 (MOLT-4) was 20.3 µM (inactive). The GI50 (HT-29) was 25.7 µM (inactive), the GI50 (HCT-15) was 15.1 µM and the GI50 (KM-20L2) was 36.3 µM (inactive). For the same compound, the GI50 (ACHN) was 23.1 µM (inactive), the GI50 (HOP-62) was 34.2 µM (inactive) and the GI50 (UACC-62) was 12.6 µM (inactive). For the same compound, the GI50 (LXFL 529) was 17.5 µM (inactive), the GI50 (IGROV-1) was 15.1 µM (inactive) and the GI50 (786-0) was 24.5 µM (inactive). The GI50 (HCC 2998) was 17.2 µM (inactive), the GI50 (SF-295) was 32.1 µM (inactive) and the GI50 (OVCAR-3) was 19.1 µM (inactive). The GI50 (DMS-273) was 29.6 µM (inactive).
In the case of `O=c1c2ccccc2oc2nccnc12`, the GI50 (M14) is reported as > 100 µM (inactive), the GI50 (SF-268) is reported as > 100 µM (inactive) and the GI50 (CAKI-1) is reported as > 100 µM (inactive). For the same compound, the GI50 (OVCAR-8) was > 100 µM (inactive), the GI50 (SK-MEL-5) was > 100 µM (inactive) and the GI50 (SNB-75) was > 100 µM (inactive). For the same compound, the GI50 (HOP-18) was > 100 µM (inactive), the GI50 (RXF 631) was > 100 µM (inactive) and the GI50 (RXF 393) was > 100 µM (inactive). For the same compound, the GI50 (XF498) was > 100 µM (inactive), the GI50 (Malme-3M) was > 100 µM (inactive) and the GI50 (SF-539) was > 100 µM (inactive). For the same compound, the GI50 (CCRF-CEM) was > 100 µM (inactive), the GI50 (OVCAR-5) was > 100 µM (inactive) and the GI50 (SNB-78) was > 100 µM (inactive). The GI50 (SK-MEL-28) was > 100 µM (inactive), the GI50 (UO-31) was > 100 µM (inactive) and the GI50 (LOX IMVI) was > 100 µM (inactive). The GI50 (M19-MEL) was > 100 µM (inactive), the GI50 (TK-10) was > 100 µM (inactive) and the GI50 (SNB-19) was > 100 µM (inactive). The GI50 (EKVX) was > 100 µM (inactive), the GI50 (SK-MEL-2) was > 100 µM (inactive) and the GI50 (SW-620) was > 100 µM (inactive). For the same compound, the GI50 (COLO 205) was > 100 µM (inactive), the GI50 (NCI-H460) was > 100 µM (inactive) and the GI50 (A498) was > 100 µM (inactive). For the same compound, the GI50 (U-251) was > 100 µM (inactive), the GI50 (DLD-1) was > 100 µM (inactive) and the GI50 (NCI-H23) was > 100 µM (inactive). The GI50 (A549) was > 100 µM (inactive), the GI50 (UACC-257) was > 100 µM (inactive) and the GI50 (OVCAR-4) was > 100 µM (inactive). For the same compound, the GI50 (HCT-116) was > 100 µM (inactive), the GI50 (KM12) was > 100 µM (inactive) and the GI50 (SN12C) was > 100 µM (inactive). For the same compound, the GI50 (DMS-114) was > 100 µM (inactive), the GI50 (SK-OV-3) was > 100 µM (inactive) and the GI50 (RPMI-8226) was > 100 µM (inactive). For the same compound, the GI50 (K562) was > 100 µM (inactive), the GI50 (MOLT-4) was > 100 µM (inactive) and the GI50 (HT-29) was > 100 µM (inactive). For the same compound, the GI50 (HCT-15) was over 100 µM, the GI50 (KM-20L2) was > 100 µM (inactive) and the GI50 (ACHN) was > 100 µM (inactive). The GI50 (HOP-62) was > 100 µM (inactive), the GI50 (UACC-62) was > 100 µM (inactive) and the GI50 (LXFL 529) was > 100 µM (inactive). For the same compound, the GI50 (IGROV-1) was > 100 µM (inactive), the GI50 (786-0) was > 100 µM (inactive) and the GI50 (HCC 2998) was > 100 µM (inactive). The GI50 (SF-295) was > 100 µM (inactive), the GI50 (OVCAR-3) was > 100 µM (inactive) and the GI50 (DMS-273) was > 100 µM (inactive).

— ChEMBL document CHEMBL1201862, “PubChem BioAssay data set” (2004)
